Patent publication US20200384134A1, “IMAGING METHOD OF AMPA RECEPTORS IN BRAIN OF PRIMATE ORGANISM, PROGRAM, DIAGNOSTIC AGENT, COMPANION DIAGNOSTIC AGENT, DRUG, SCREENING METHOD, INPUT TERMINAL, SERVER AND SYSTEM” (Public University Corporation Yokohama City University, priority 2017, published 2020)

Key:
AMPA receptors = assay: AMPA receptor binding test (electrophysiological verification) in vitro; assay type: cell-based; conditions: FIG. 5
[1] = tested on: WKY rat which was the depression model rat; assay: Forced swimming test using rat; assay type: in vivo; conditions: FIG. 10
Method: In a forced swimming test, AMPA receptor-binding compounds K-2 and K-4 were dissolved in 100% DMSO (Nacalai Tesque, Inc. Japan) so as to have a concentration of 2.1 mM, were diluted with saline immediately before being administered (15% DMSO, 320 μM) and were intravenously administered to the rat with an administered amount of 5 μl/weight (g) such that the administered amount fell within a range of 1 mg/kg to 1.5 mg/kg.
In all animal experiments, the deliberation and the approval of the animal experiment committee in Yokohama City University were received (approval number: F-A-15-051). As rats, adult male Wistar rats which were 6 to 10 weeks old and Wistar Kyoto rats (WKY rats) which were depression model rats (Charles River, Japan) were used. In order to acquire a route for the repeated administration of K-2, a jugular vein cannula indwelling surgery was performed a week before the experiment. The rat was made to fall sleep with isoflurane (DS Pharma Animal Health, Japan), and thereafter, while anesthesia was maintained at an isoflurane concentration of 1.5% (air 2 L/minute), the jugular vein cannula indwelling surgery was performed. The skin of a neck was incised about 3 cm such that subcutaneous fat was opened, and thus a jugular vein was exposed. […]

[2] = tested on: AMPA receptors in the brain; assay: PET imaging in humans (healthy persons); assay type: in vivo, human; conditions: about 370 MBq i.v.
Method: PET imaging was performed on two human subjects. […] Absorption correction CT imaging was performed for about one minute, and then [^11C] K-2 of about 370 MBq was administered, as a PET drug, intravenously over one minute. Thereafter, imaging was performed for 120 minutes. For the imaging, a PET/CT device “Aquiduo” (Toshiba Medical Systems Corporation) was used. In list data which was collected, dynamic images were reconstructed by an OS-EM method.
(§1) The reconstructed image was analyzed with the PMOD image analysis software (PMOD technologies) by integrating VOIs including a plurality of regions of frontal lobe, dentate cortex, hippocampus, amygdala, putamen, cerebellum, bridge and the like with one formed on a template MRI image. […]
as §1, with “image. As a calculation value used in quantitative determination, % SUV (% of standardized uptake value) was used.” for “image.”

Row | Structure (SMILES) | binding affinity to the AMPA receptors (AMPA receptors) | immobile time, K-4 compared with K-2 ([1]; chronic administration, 1 mg/kg) | immobile time, chronic administration experiment ([1]; i.v. for 7 days, 1 mg/kg to 1.5 mg/kg, compared with 15% DMSO) | nonspecific accumulation caused by PET drug not bound to the AMPA receptors in the brain ([2]; between 30 and 60 minutes after administration, two human subjects) | uptake into the brain ([2]; healthy men, average 50 to 120 minutes, FIG. 12)
1 | CN(C)C(=O)COc1c(F)cc(SCCN(C)S(=O)(=O)c2ccccc2)cc1F [Compound K-4, {4-[2-(benzenesulfonyl-methyl-amino)-ethylsulfanil]-2,6-difluoro-phenoxy}-N,N-dimethyl-acetamide] | indicated binding affinity | significantly lowers the immobile time instead of K-2 | significantly lowered |  | 
2 | [11CH3]N(CCSc1cc(F)c(OCC(N)=O)c(F)c1)S(=O)(=O)c1ccccc1 [[^11C] K-2, [4-[2-(benzenesulfonyl-[^11C]methyl-amino)-ethylsulfanyl]-2,6-difluorophenoxy]-acetamide] |  |  |  | remarkably washed out | high
